This note sets out measurements from patent publication US20020183313A1, “1,4-benzodiazepinones and their uses as CCK antagonists” (Fujisawa Pharmaceutical Co., Ltd., priority 1996, published 2002).

The test system of data set [1] is CCK-B. The experiment in a line: Receptor binding studies, CCK-B. As to conditions: ratio IC50 CCK-A / IC50 CCK-B. The protocol: (§1) Receptor binding studies and gastric emptying in mice
(§2) The tests were carried out in accordance with the method described at pages 571 to 572 in the following literature;
(§3) Harunobu Ito, Hajime Sogabe et al., The Journal of Pharmacology and Experimental Therapeutics, 571, No.2, Vol.268 (1994).

Data set [2] deals with T1, CCK-B (UniProt H0VZC5).
T1 construct: IC50 (nM) for CCK-B
T1 sequence (H0VZC5 1-426): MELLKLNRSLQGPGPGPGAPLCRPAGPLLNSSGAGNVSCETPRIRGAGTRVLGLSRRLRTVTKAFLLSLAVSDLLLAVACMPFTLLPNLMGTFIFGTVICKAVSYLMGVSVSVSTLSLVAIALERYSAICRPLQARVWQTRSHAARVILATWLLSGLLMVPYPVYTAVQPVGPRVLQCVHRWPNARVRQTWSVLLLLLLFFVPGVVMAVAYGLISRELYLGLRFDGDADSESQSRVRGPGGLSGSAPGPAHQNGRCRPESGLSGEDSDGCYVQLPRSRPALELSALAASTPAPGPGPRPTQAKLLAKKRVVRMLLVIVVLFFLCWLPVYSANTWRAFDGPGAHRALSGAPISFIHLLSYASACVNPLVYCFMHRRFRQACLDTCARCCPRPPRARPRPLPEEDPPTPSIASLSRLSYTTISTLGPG
Nature of the data set: Receptor binding studies, CCK-B. On the procedure: as §1, §2, §3

The next data set has as its system mice. Nature of the data set: Gastric emptying in mice. It counts as in vivo. On the procedure:
as §1, §2, §3

The target of another data set is T2, CCK-A (UniProt P30551).
T2 sequence (P30551 1-444): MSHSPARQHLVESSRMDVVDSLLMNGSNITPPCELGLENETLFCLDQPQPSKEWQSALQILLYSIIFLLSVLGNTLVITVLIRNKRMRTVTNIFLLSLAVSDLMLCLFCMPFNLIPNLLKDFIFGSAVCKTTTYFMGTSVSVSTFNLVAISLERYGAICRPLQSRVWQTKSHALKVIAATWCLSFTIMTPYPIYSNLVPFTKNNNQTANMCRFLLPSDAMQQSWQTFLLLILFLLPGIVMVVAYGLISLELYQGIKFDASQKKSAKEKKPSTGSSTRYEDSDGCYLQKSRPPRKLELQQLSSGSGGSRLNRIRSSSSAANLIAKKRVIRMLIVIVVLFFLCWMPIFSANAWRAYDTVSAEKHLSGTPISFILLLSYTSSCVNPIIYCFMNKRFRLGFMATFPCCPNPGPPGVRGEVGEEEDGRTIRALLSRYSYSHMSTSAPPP
The experiment in a line: Receptor binding studies, CCK-A. On the procedure:
as §1, §2, §3

Data set [3] addresses T3, guinea-pig cerebral cortical membranes (125I-CCK-8 binding) (Cavia porcellus, UniProt H0VZC5).
T3 construct: from tissue; host or cells: guinea-pig cerebral cortex membranes
T3 sequence (H0VZC5 1-426): T1 sequence (H0VZC5 1-426)
Nature of the data set: [125I]CCK-8 binding to guinea-pig cerebral cortical membranes. As to conditions: test compound 1×10^−8 M; 50 pM 125I-CCK-8; 60 minutes at 37° C. The protocol: [^125I]CCK-8 binding to guinea-pig cerebral cortical membranes
Guinea-pigs were killed by decapitation and bled to death. Cerebral cortex was removed, minced in a small quantity of 50 mM Tris-HCl buffer (pH 7.4), and homogenized in 20 vol. of the buffer by a glass-teflon homogenizer. The homogenate was centrifuged at 30000× g (16000 rpm) for 10 minutes. The pellet was then resuspended in the same buffer by a glass-teflon homogenizer and recentrifuged at 30000× g for 10 minutes. This procedure (washings) was repeated twice more. The final pellet (membrane) was suspended in incubation medium (see below) so as to obtain a final protein concentration of 4 mg/ml and frozen at −80° C. All manipulations were done at 0-4° C.
(ii) Receptor Binding Assay
The composition of incubation medium was as follows:
10 mM HEPES (pH 6.5), 5 mM MgCl2, 1 mM EGTA, 130 mM NaCI and 0.25 mg/ml bacitracin. Frozen membranes were thawed and aliquots (400 μg, protein) were incubated for 60 minutes under shaking at 37° C. in plastic tubes in 500 μL of incubation medium with 50 pM ^125I-CCK-8 in the presence or absence of test compound (1×10^−8 M). […] After washing the filter with 50 mM Tris-HCl (pH 7.4) buffer containing 0.1% BSA, the radioactivity of the filter was countered. […] The effect of the test compound was expressed as % inhibition of specific ′^125I-CCK-8 binding.

As usually defined, the melting point is the temperature, or range, at which the solid turns liquid. The IC50 is the concentration needed to halve the response being measured. A high value points to a need for much substance. `CC1=NC(NC(=O)Nc2cccc(C)c2)C(=O)N(CC(=O)C2CCCCC2)c2c(C)cccc21` (racemic) [Compound (A), N-[(3RS)-1-cyclohexylcarbonylmethyl-2,3-dihydro-5,9-dimethyl-2-oxo-1H-1,4-benzodiazepin-3-yl]-N′-(3-methylphenyl)urea] gave a melting point of 179.2 to 180.9 °C. Also, in the data set on CCK-B [1], the “selectivity A/B” value is reported as 0.30. Also, the IC50 on CCK-B [2] was found to be 3.7 nM. For the same compound, in the data set with mice, the “Gastric emptying ID50” value was found to be 0.4 mg/kg. In addition, on CCK-A, the IC50 is 1.1 nM. With `CCC1=N[C@@H](NC(=O)Nc2cccc(C)c2)C(=O)N(CC(=O)C2CCCCC2)c2c(C)cccc21` [(C), N-[(3R)-1-cyclohexylcarbonylmethyl-5-ethyl-9-methyl-2-oxo-2,3-dihydro-1H-1,4-benzodiazepin-3-yl]-N′-(3-methylphenyl)urea], the “selectivity A/B” value in the data set on CCK-B [1] is on record as 0.30. In addition, the concentration for half-maximal inhibition (IC50) at CCK-B [2] turned out to be 1 nM; on CCK-A it was 0.3 nM. In the data set on mice, the “Gastric emptying ID50” value was found to be 0.23 mg/kg. Turning to `Cc1cccc(NC(=O)NC2N=C(C3CC3)c3cccc(C)c3N(CC(=O)C3CCCCC3)C2=O)c1` (racemic) [(D), N-[(3RS)-1-cyclohexylcarbonylmethyl-5-cyclopropyl-2,3-dihydro-9-methyl-2-oxo-1H-1,4-benzodiazepin-3-yl]-N′-(3-methylphenyl)urea], the melting point is 143.6 to 144.2 °C. Also, the “selectivity A/B” value in the data set with CCK-B [1] worked out at 1.82. In addition, the IC50 at CCK-B [2] was 1.1 nM. For the same compound, the “Gastric emptying ID50” value in the data set with mice is 1.8 mg/kg. On CCK-A, this compound displayed an IC50 of 2 nM. The matching figures for `CCC1=NC(NC(=O)Nc2cccc(C)c2)C(=O)N(CC(=O)C2CCCCC2)c2c(C)cccc21` (racemic) [(B), N-[(3RS)-1-cyclohexylcarbonylmethyl-2,3-dihydro-5-ethyl-9-methyl-2-oxo-1H-1,4-benzodiazepin-3-yl]-N′-(3-methylphenyl)urea]: 161.2 to 164 °C, 0.56, 1.6 nM, 0.4 mg/kg and 0.9 nM. For the compound `Cc1cccc(NC(=O)NC2N=C(CC(C)C)c3cccc(C)c3N(CC(=O)C3CCCCC3)C2=O)c1` (racemic) [Example 73, N-[(3RS)-1-Cyclohexylcarbonylmethyl-2,3-dihydro-5-isobutyl-9-methyl-2-oxo-1H-1,4-benzodiazepin-3-yl]-N′-(3-methylphenyl)urea], the melting point was in the range of 152.3 to 154.8 °C. The same measure, in the same setting: the same measure for `Cc1cccc2c1N(CC(=O)c1ccccc1[N+](=O)[O-])C(=O)C(NC(=O)Nc1cccc(-c3nnn[nH]3)c1)N=C2c1ccccc1F` (racemic): 192.2 to 197.1 °C; for `CCC1=NC(NC(=O)Nc2cccc(C)c2)C(=O)N(CC(=O)N2CC3CCC(CC3)C2)c2ccccc21` (racemic): 115 to 120 °C. The same measure, in the same setting: as for `CC1=NC(NC(=O)Nc2cccc(C)c2)C(=O)N(CC(=O)c2ccccc2C)c2c(C)cccc21` (racemic) [Example 37, N-[(3RS)-2,3-Dihydro-5,9-dimethyl-1-(2-methylphenacyl)-2-oxo-1H-1,4-benzodiazepin-3-yl]-N′-(3-methylphenyl)urea], the figure is 128.4 to 136.2 °C; as for `CCOC(=O)CN1C(=O)C(NC(=O)Nc2cccc(C)c2)N=C(C)c2cccc(C)c21` (racemic) [Example 48-1, N-[(3RS)-2,3-Dihydro-1-ethoxycarbonylmethyl-5,9-dimethyl-2-oxo-1H-1,4-benzodiazepin-3-yl]-N′-(3-methylphenyl)urea], 229.7 to 231 °C; as for `Cc1cccc(NC(=O)NC2N=C(C3CC3)c3cccc(C)c3N(CC(=O)N3CC4CCC(CC4)C3)C2=O)c1` (racemic), 172 to 174.4 °C.

As for `Cc1cccc2c1N(CC(=O)C13CC4CC(CC(C4)C1)C3)C(=O)C(NC(=O)Nc1cccc(-c3nnn[nH]3)c1)N=C2c1ccccc1F` (racemic), the melting point was 195 to 218.4 °C (dec.). On the same count and under the same terms, as for `Cc1cccc(NC(=O)NC2N=C(C(C)C)c3cccc(C)c3N(CC(=O)N3CCCCCCC3)C2=O)c1` (racemic) [Example 67, N-[(3RS)-1-(Azacyclooctan-1-yl)carbonylmethyl-2,3-dihydro-5-isopropyl-9-methyl-2-oxo-1H-1,4-benzodiazepin-3-yl]-N′-(3-methylphenyl)urea], the figure is 131.7 to 132.8 °C. For `CC(=O)c1sccc1CN1C(=O)C(NC(=O)Nc2cccc(C)c2)N=C(C(C)C)c2ccccc21` (racemic) [(2)], the “Inhibition (%) of specific 125I-CCK-8 binding” value in data set [3] was found to be 97%. For the compound `Cc1cccc(NC(=O)NC2N=C(CN(C)C)c3cccc(C)c3N(CC(=O)N3CCCCCCC3)C2=O)c1` (racemic) [71-3(1), N-[(3RS)-1-(azacyclooctan-1-yl)carbonylmethyl-2,3-dihydro-5-(N,N-dimethylamino)methyl-9-methyl-2-oxo-1H-1,4-benzodiazepin-3-yl]-N′-(3-methylphenyl)urea], the melting point lay within 147.9 to 149.1 °C. Still for that read-out and setting: the same measure for `Cc1cccc(NC(=O)NC2N=C(C3CCCCC3)c3cccc(C)c3N(CC(=O)C3CCCCC3)C2=O)c1` (racemic) [Example 54, N-[(3RS)-5-Cyclohexyl-1-cyclohexylcarbonylmethyl-2,3-dihydro-9-methyl-2-oxo-1H-1,4-benzodiazepin-3-yl]-N′-(3-methylphenyl)urea]: 159.3 to 169.6 °C; for `Cc1cccc(NC(=O)NC2N=C(CN3CC4CCC(CC4)C3)c3cccc(C)c3N(C)C2=O)c1` (racemic): 145.6 to 149.2 °C.
